These results are taken from the supplement of paper PMC5412046.

Test [1] relates to SB.mhdgc-1. Put plainly: AC50 for growth inhibition (viability) (log10 M); higher = less potent. The settings on record: SB.mhdgc-1 (hereditary c.1380delA CDH1 gastric cancer). The method in brief:
(§1)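 Values are log half-maximal activity concentrations from four-parameter fits of DMSO-normalised viability, restricted to high-quality curve classes. Patient-derived gastric cancer cells, hereditary or sporadic, were plated at 500 cells per 1536 well in 5 μL medium and given 23 nL compound in DMSO by pintool across 11 threefold dilutions, the top final concentration being 46 μM. Viability was read by ViewLux luminescence after 48 h and a 30 min CellTiter-Glo step at room temperature.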

Test [2] concerns SB.msgc-1. Described as above. The settings on record: SB.msgc-1 (sporadic gastric cancer). In outline: as §1

Where a name gives a salt, the structure may show the parent alone.

On to `CN(Cc1cnc2nc(N)nc(N)c2n1)c1ccc(C(=O)N[C@@H](CCC(=O)O)C(=O)O)cc1` [Methotrexate], for which the “AC50 for growth inhibition (log10 M)” value in test [1] is -6.68; in test [2] it was -7.48.
For `COc1ccc([S+](=O)([O-])Nc2cc(-c3c(O)ccc4ccccc34)c(O)c3ccccc23)cc1` [C-188-9], in that order: -4.73 and -4.73.
The corresponding values for `C=C1C(=O)[C@@]23C(CC[C@@H]1[C@H]2O)[C@@]12CO[C@]3(O)[C@@H](O)[C@@H]1C(C)(C)CC[C@@H]2O` (stereo not given in full) [Oridonin] are -4.98 and -4.73.
The corresponding values for `NC1(C(=O)N[C@@H](CCO)c2ccc(Cl)cc2)CCN(c2ncnc3[nH]ccc23)CC1` [AZD-5363] are -5.23 and -5.08.
Regarding `CC(=O)N(C)C1(c2ccccc2)CCN(CCC[C@]2(c3ccc(Cl)c(Cl)c3)CCCN(C(=O)c3ccccc3)C2)CC1` [Osanetant], the “AC50 for growth inhibition (log10 M)” value in test [1] is -4.98; in test [2], -4.78.
The corresponding values for `COc1ccc([S+](=O)([O-])N(C(C)=O)c2ccccc2/C=C/c2cc[n+]([O-])cc2)cc1` [IVX-214] are -6.53 and -6.38.
For the compound `Cc1ccccc1C(=O)c1ccc(Nc2ccc(Br)cc2N)cc1Cl` [EO-1428], the “AC50 for growth inhibition (log10 M)” value in test [1] was -4.93; in test [2], -4.78.
For `CC(C)n1cnc2c(NCCc3ccc(O)cc3)nc(-c3csc4ccccc34)nc21` [StemRegenin 1], in that order: -5.78 and -4.88.
Take `CC(C)c1cnn2c(NCc3ccccc3)cc(NCCCCCCN)nc12` [BS-181]: the “AC50 for growth inhibition (log10 M)” value in test [1] was -4.83; in test [2], -4.73.
For the compound `CCNC(=O)c1cc2c(-c3cc(OCCN4CCCC4)c(Cl)cc3Cl)nc(N)nc2s1`, the “AC50 for growth inhibition (log10 M)” value in test [1] was -5.53; in test [2], -6.38.
Take `COC(=O)C1C2CC3c4[nH]c5cc(OC)ccc5c4CCN3CC2CC(OC(=O)c2cc(OC)c(OC)c(OC)c2)C1OC` (stereo not given) [Reserpine]: the “AC50 for growth inhibition (log10 M)” value in test [1] and in test [2] was -5.43 each time.
Consider `NC1(Cc2ccc(Cl)cc2)CCN(c2ncnc3[nH]ccc23)CC1`, for which the “AC50 for growth inhibition (log10 M)” value is -4.83 in test [1] and -4.78 in test [2].
On to `CN1CCC(CNc2ccc3ncc(-c4cccc(OC(F)(F)F)c4)n3n2)CC1` [SGI-1776], for which the results for the “AC50 for growth inhibition (log10 M)” value in test [1] and in test [2] were -5.03 and -4.83, respectively.
For `O=[N+]([O-])c1cnc(Sc2nnc(O)n2-c2ccc3c(c2)OCCO3)s1` [BI-78D3], the “AC50 for growth inhibition (log10 M)” value was -5.43 in test [1] and -4.83 in test [2].
Turning to `CC[C@@H]1/C=C(\C)C[C@H](C)C[C@H](OC)[C@H]2O[C@@](O)(C(=O)C(=O)N3CCCC[C@H]3C(=O)O[C@H](/C(C)=C/[C@@H]3CC[C@H](Cl)[C@H](OC)C3)[C@H](C)[C@@H](O)CC1=O)[C@H](C)C[C@@H]2OC` [Pimecrolimus], the “AC50 for growth inhibition (log10 M)” value is -4.98 in test [1] and -4.93 in test [2].
The corresponding values for `CCCCC(C)(C)[C@H](O)/C=C/[C@H]1[C@H](O)CC(=O)[C@@H]1C/C=C\CCCC(=O)O` [16,16-dimethyl PGE2] are -4.68 and -4.63.
For `c1ccc2c(CCNc3ccc(Nc4ccncc4)cc3)c[nH]c2c1` [Serdemetan], in that order: -5.63 and -4.73.
Consider `Nc1nc(F)nc2c1ncn2[C@@H]1O[C@H](CO)[C@@H](O)[C@H]1O` [2-Fluoroadenosine], for which the “AC50 for growth inhibition (log10 M)” value in test [1] and in test [2] was -6.23 throughout.
Take `O=C(c1ccc(OCCN2CCCCC2)cc1)c1c(-c2ccc(O)cc2)sc2cc(O)ccc12` [Raloxifene hydrochloride]: the “AC50 for growth inhibition (log10 M)” value is -6.88 in test [1] and -5.18 in test [2].
For `C#C[C@]1(O)CC[C@H]2[C@@H]3CCc4cc(O)ccc4[C@H]3CC[C@@]21C` [Ethinylestradiol], in that order: -4.78 and -4.83.
For `CC1=C(CC(=O)O)c2cc(F)ccc2/C1=C\c1ccc([S+](C)[O-])cc1` (stereo not given) [Sulindac], in that order: -5.93 and -5.53.
On to `CN1CCN(CC1)C2=CC3=C([NH]C(=N3)C/4=C(\N)C5=C(F)C=CC=C5NC4=O)C=C2` [Dovitinib], for which the “AC50 for growth inhibition (log10 M)” value in test [1] is -4.78; in test [2] it was -4.73.
For `C[C@@H]\1COC(=N1)\NC2=CC3=C(C=C2)N=CN=C3NC4=CC(=C(OCC5=NC=CS5)C=C4)Cl` [Varlitinib tosylate], in that order: -6.63 and -6.53.
For `COc1cccc2c1C(=O)c1c(O)c3c(c(O)c1C2=O)C[C@@](O)(C(C)=O)C[C@@H]3O[C@H]1C[C@H](N)[C@H](O)[C@H](C)O1` [Daunorubicin], in that order: -7.28 and -6.93.
Turning to `COc1c(C)c2c(c(O)c1C/C=C(\C)CCC(=O)O)C(=O)OC2` [Mycophenolic acid], the entries for the “AC50 for growth inhibition (log10 M)” value in test [1] and in test [2] were -5.48 and -5.93, respectively.
